pEC50: −log10 of the molar value.
Assays:
[1] = molecular target: T1, Human M2 (Homo sapiens, UniProt P08172); test: M2 cell-based functional assay, calcium mobilization (selectivity); details: for Emax at 30 µM: % ACh maximum at 30 μM
T1 construct: expressed in transfected cells; host or cells: CHO-K1
T1 sequence (P08172 1-466): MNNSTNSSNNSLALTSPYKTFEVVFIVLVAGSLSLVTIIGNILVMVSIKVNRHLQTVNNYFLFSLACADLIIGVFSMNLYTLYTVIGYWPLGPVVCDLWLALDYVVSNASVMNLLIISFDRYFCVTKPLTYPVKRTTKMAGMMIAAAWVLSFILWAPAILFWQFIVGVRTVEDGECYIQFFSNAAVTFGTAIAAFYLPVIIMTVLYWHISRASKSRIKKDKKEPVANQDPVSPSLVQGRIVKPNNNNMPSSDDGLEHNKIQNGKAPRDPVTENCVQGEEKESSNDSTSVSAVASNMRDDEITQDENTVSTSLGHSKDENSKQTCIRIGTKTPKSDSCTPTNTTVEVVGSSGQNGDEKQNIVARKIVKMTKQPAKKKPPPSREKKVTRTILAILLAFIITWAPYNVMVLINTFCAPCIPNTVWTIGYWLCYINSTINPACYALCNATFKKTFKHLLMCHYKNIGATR
Protocol: (§1) The high throughput assay was employed to measure receptor-induced mobilization of intracellular calcium to determine compound activity. Test compound was added to cells expressing the muscarinic receptors that were loaded with calcium sensitive fluorescent dye. After a ˜2.5 minute incubation period, a submaximal (EC20) concentration of acetylcholine was added, and the response measured. This kinetic assay allows for simultaneous screening and potency determination of multiple pharmacological modes of action including agonist and potentiator activity. CHO-K1 cells stably expressing muscarinic receptors were plated in growth medium lacking G418 and hygromycin at 15,000 cells/20 μL/well in Greiner 384-well black-walled, tissue culture (TC)-treated, clear-bottom plates (Greiner Bio-One). Cells were incubated overnight at 37° C. and 5% CO2. The next day, calcium assay buffer (Hank's balanced salt solution (HBSS), 20 mM HEPES, 2.5 mM Probenecid, 4.16 mM sodium bicarbonate (Sigma-Aldrich, St. Louis, MO)) was prepared to dilute compounds, agonists, and Fluo-4-acetomethoxyester (Fluo-4-AM), fluorescent calcium indicator dye. Compounds were serially diluted 1:3 into 10 point concentration response curves in DMSO using the Bravo Liquid Handler (Agilent, Santa Clara, CA), transferred to a 384 well daughter plates using an Echo acoustic liquid handler (Beckman Coulter, Indianapolis, Indiana), and diluted in assay Buffer to a 2× final concentration. The agonist plates were prepared using acetylcholine (ACh, Sigma-Aldrich, St. Louis, MO) concentrations for the EC20 and ECMAX responses by diluting in assay buffer to a 5× final concentration. The 2× dye solution (2.3 μM) was prepared by mixing a 2.3 mM Fluo-4-AM stock in DMSO with 10% (w/v) pluronic acid F-127 in a 1:1 ratio in assay buffer. Using a microplate washer (BioTek, Winooski, VT), cells were washed with assay buffer for 3 times to remove medium. After the final wash, 20 μL of assay buffer remained in the cell plates. Immediately, 20 μL of the 2× dye solution (final 1.15 μM) was added to each well of the cell plate using a Multidrop Combi dispenser (Thermo Fisher, Waltham, MA). After cells were incubated with the dye solutions for 45 min at 37° C. in the presence of 5% CO2, the dye solutions were removed and replaced with assay buffer using a microplate washer, leaving 20 μL of assay buffer in the cell plate.
The prepared compound, agonist, and cell plates were placed inside the Functional Drug Screening System uCell (FDSS uCell, Hamamatsu, Japan) to measure the calcium flux. The triple add protocol was used to measure Ca kinetics; Compound, ACh for EC20, and ACh for EC80 adds in an order. Briefly, after establishment of a fluorescence baseline for 2 seconds (excitation, 480 nm; emission, 530 nm), first add occurred by adding 20 μL of test compound to the cells, and the response was measured for 140 seconds. This is followed by second add; 10 μL (5×) of an EC20 concentration of ACh agonist was added to the cells, and the response of the cells was measured for 125 seconds. Immediately, the third add occurred by adding […] (5×) of an EC80 concentration of ACh and the response of the cells was measured for 90 seconds. Acetylcholine-mediated maximum response (ECmax) was measured by adding 1 mM ACh as third add in the control wells. DMSO vehicle was added to the control wells in the first add for assessing ACh EC20, EC80, and ECmax responses. Calcium fluorescence was recorded as fold over basal fluorescence and raw data were normalized to the maximal response to ACh agonist. Agonist activity was analyzed as a concentration-dependent increase in calcium mobilization upon compound addition. Positive allosteric modulator activity was analyzed as a concentration-dependent increase in the EC20 acetylcholine response. Antagonist activity was analyzed as a concentration-dependent decrease in the EC80 acetylcholine response. […]

[2] = molecular target: T2, Human M4 (Homo sapiens, UniProt P08173); test: M4 cell-based functional assay, calcium mobilization, potentiation of ACh EC20; details: for Emax at 30 µM: % ACh maximum at 30 μM; for pEC50: CHO-K1 hM4-Gqi5 cells, calcium flux, ACh EC20
T2 construct: expressed in transfected cells
T2 sequence (P08173 1-479): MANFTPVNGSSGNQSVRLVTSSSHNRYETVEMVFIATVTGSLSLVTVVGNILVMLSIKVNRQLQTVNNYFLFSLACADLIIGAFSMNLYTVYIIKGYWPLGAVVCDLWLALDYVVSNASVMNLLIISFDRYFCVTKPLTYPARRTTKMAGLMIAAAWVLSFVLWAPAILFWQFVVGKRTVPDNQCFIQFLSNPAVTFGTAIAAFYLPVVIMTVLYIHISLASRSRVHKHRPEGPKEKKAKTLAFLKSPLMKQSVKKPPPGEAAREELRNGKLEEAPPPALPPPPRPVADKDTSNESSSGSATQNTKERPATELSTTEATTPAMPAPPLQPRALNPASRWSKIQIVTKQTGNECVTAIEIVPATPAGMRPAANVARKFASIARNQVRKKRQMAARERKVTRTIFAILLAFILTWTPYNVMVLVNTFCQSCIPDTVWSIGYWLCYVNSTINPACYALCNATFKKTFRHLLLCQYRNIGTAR
Protocol: Human and rat M4 cDNAs, along with the chimeric G protein Gqi5, were transfected into Chinese hamster ovary (CHO-K1) cells purchased from the American Type Culture Collection using Lipofectamine2000. The transfected cells were subjected to selection antbiotic treatment to generate stable cell lines; G418 sulfate (1 mg/ml) for selecting M4 expressing cells and Hygromycin B (500 μg/mL) for selecting Gqi5 expressing cells. The resulting polyclones were further screened to obtain monoclones of hM4-Gqi5 and rM4-Gqi5 for compound screening assay. Stable monoclone cells were maintained in Ham's F-12 medium containing 10% heat-inactivated fetal bovine serum (FBS), 1× Antibiotic/Antimycotic, 20 mM HEPES, 500 μg/mL G418 sulfate, and 200 μg/mL Hygromycin B in 37° C. humidified incubators in the presence of 5% CO2.
as §1
The prepared compound, agonist, and cell plates were placed inside the Functional Drug Screening System uCell (FDSS uCell, Hamamatsu, Japan) to measure the calcium flux. The triple add protocol was used to measure Ca kinetics; Compound, ACh for EC20, and ACh for EC80 adds in an order. Briefly, after establishment of a fluorescence baseline for 2 seconds (excitation, 480 nm; emission, 530 nm), first add occurred by adding 20 μL of test compound to the cells, and the response was measured for 140 seconds. This is followed by second add; 10 μL (5×) of an EC20 concentration of ACh agonist was added to the cells, and the response of the cells was measured for 125 seconds. […]

[3] = tested on: amphetamine-induced hyperlocomotion in male Sprague-Dawley rats; test: Amphetamine-induced hyperlocomotion in rats; type: in vivo; details: 10 mg/kg oral gavage, rat, amphetamine 0.75 mg/kg s.c.
Protocol: Drugs: d-Amphetamine hemisulfate was obtained from Sigma (St. Louis, MO). Salt-correction was used to determine the correct amount of the d-amphetamine hemisulfate form in milligrams to add to sterile water in order to yield a 0.75 mg/mL solution, which would be dosed at 1 mL/kg body weight of each animal. […] The solutions were formulated so that animals were injected with a volume equal to 10 mL/kg body weight for all compounds. The appropriate amount according to the dosage was mixed in 10% Tween 80 (Sigma) in sterile water. The mixtures were then vortexed and stored in a 39° C. sonication bath for 1 hour, until in a solution or microsuspension (depending on dose).
Animals: Male Sprague-Dawley rats weighing 239-300 grams and averaging 265 g (Harlan, Inc., Indianapolis, IN) were used. They were housed in the animal care facility certified by the American Association for the Accreditation of Laboratory Animal Care (AALAC) under a 12-hour light/dark cycle (lights on: 6 a.m.; lights off: 6 p.m.) and had free access to food and water. The animals used in this experiment were food-deprived the evening before experimentation for oral dosing of compound/vehicle. The experimental protocols performed during the light cycle were approved by the Institutional Animals Care and Use Committee of Vanderbilt University and conformed to the guidelines established by the National Research Council Guide for the Care and Use of Laboratory Animals.
Amphetamine-induced Hyperlocomotion: Male Harlan Sprague Dawley rats were habituated in Smart Open Field locomotor activity test chambers (Hamilton-Kinder, San Diego, CA) with 16×16 photo beams to automatically record locomotor activity. […] They were monitored for an additional 30 minutes and then injected subcutaneously with vehicle or 0.75 mg/kg amphetamine. Animals were then monitored for an additional 60 minutes, for a total of 120 minutes. Data were expressed as changes in ambulation defined as total number of beam breaks per 5 minute interval. Terminal brain and plasma samples were collected at the end of the study for pharmacokinetic analysis.
Data Analysis: Behavioral data were analyzed using a two-way ANOVA with main effects of treatment and time. Post hoc analysis was performed using a Dunnett's t-test with all treatment groups compared to the Vehicle/amphetamine group (VAMP) group using GraphPad Prism V.5.04 (GraphPad Software, San Diego, CA). Data were graphed using GraphPad Prism V.5.04 (GraphPad Software, San Diego, CA). A probability of p≤0.05 was taken as the level of statistical significance. In addition, the total number of beam breaks from the amphetamine administration (65 min) to the end of the study (120 min) was calculated and graphed. Percent Reversal was calculated as follows using Microsoft Excel: In each animal, total ambulation from t=65 to t=120 was summed. The mean of each sum was calculated in the VAMP group. Then, for each animal, Percent Reversal was calculated with the following formula: Percent Reversal=100−{[(total ambulation in each animal from t=65 to t=120)/(mean of each sum from t=65 to t=120 in VAMP group)]*100}. The mean Percent Reversal, as well as the standard error, was calculated for each dose group using GraphPad Prism V5.04.

[4] = M2 cell-based functional assay, calcium flux

Row | Compound | Human M2 EC50 [1, 4] | Emax at 30 µM [2] [%] | pEC50 [2] | Emax at 30 µM [1] [%] | pEC50 [1, 4] | percent reversal of amphetamine-induced hyperlocomotion [3] [%]
1 | [2H]C1([2H])Oc2ccc(OC3CCN(c4nc5n[nH]c(=O)n5c5c4CCCC5)CC3)cc2OC1([2H])[2H] [Compound A17, 5-(4-((2,3-dihydrobenzo[b][1,4]dioxin-6-yl-2,2,3,3-d4)oxy)piperidin-1-yl)-6,7,8,9-tetrahydro-[1,2,4]triazolo[4,3-a]quinazolin-1(2H)-one] | Inactive | 87 | 7.19 |  |  | 
2 | [2H]C1([2H])Oc2ccc(OC3CCN(c4nc5c(cc4C)C(=O)N(C4CCCC4)C5)CC3)cc2OC1([2H])[2H] [Compound 7, 6-cyclopentyl-2-(4-((2,3-dihydrobenzo[b][1,4]dioxin-6-yl-2,2,3,3-d4)oxy)piperidin-1-yl)-3-methyl-6,7-dihydro-5H-pyrrolo[3,4-b]pyridin-5-one] |  | 76 | 7.19 | 53 | 5.43 | 
3 | [2H]C1([2H])Oc2ccc(OC3CCN(c4nc5n[nH]c(=O)n5c(C)c4C)CC3)cc2OC1([2H])[2H] [Compound A9, 7-(4-((2,3-dihydrobenzo[b][1,4]dioxin-6-yl-2,2,3,3-d4)oxy)piperidin-1-yl)-5,6-dimethyl-[1,2,4]triazolo[4,3-a]pyrimidin-3(2H)-one] |  | 79 | 8.30 | 45 | 6.08 | 
4 | [2H]C([2H])([2H])n1nc2nc(N3CCC(Oc4ccc5c(c4)OC([2H])([2H])C([2H])([2H])O5)CC3)c(C)c(C)n2c1=O [Compound A18, 7-(4-((2,3-dihydrobenzo[b][1,4]dioxin-6-yl-2,2,3,3-d4)oxy)piperidin-1-yl)-5,6-dimethyl-2-(methyl-d3)-[1,2,4]triazolo[4,3-a]pyrimidin-3(2H)-one] |  | 98 | 8.52 | 53 | 5.95 | 
5 | Cc1nnc2sc(C(=O)NCc3ccc(S(=O)(=O)C(F)(F)F)cc3)c(N)c2c1C [VU0467154, reference compound] |  |  |  |  |  | 56.2
6 | [2H]C1([2H])Oc2ccc(OC3CCN(c4nc5nn([C@H]6CCOC6)c(=O)n5cc4C)CC3)cc2OC1([2H])[2H] [Compound A5, (S)-7-(4-((2,3-dihydrobenzo[b][1,4]dioxin-6-yl-2,2,3,3-d4)oxy)piperidin-1-yl)-6-methyl-2-(tetrahydrofuran-3-yl)-[1,2,4]triazolo[4,3-a]pyrimidin-3(2H)-one] |  | 87 | 7.92 | 66 | 5.54 | 

— patent publication US12552790B2, “Positive modulators of the muscarinic acetylcholine receptor M4” (Vanderbilt University, priority 2023, dated 2026)
